Bounds are passed on as bounds.

The subject of one assay is CT26 cells. The assay is described as follows: Pulmonary metastasis in vivo: CT26 lung tumors in BALB/c mice. The arrangement: species or system mouse. The note with it: CT26 via tail vein. On the procedure: BALB/c mice were intravenously injected with 2×10^4 CT26 cells in 100 μL of PBS via tail vein injection and the mice were treated with bHDL at 10 mg/kg/day administered SQ for 3 weeks; or treated with bHDL at 100 mg/kg/day administered in a chow diet for 3 weeks. After 3 weeks treatment, the mice were sacrificed; lungs were harvested, weighed and fixed with Bouin's solution (Sigma). Tumor nodules on the lung surface were counted.
BALB/c mice were intravenously injected with 2×10^4 CT26 cells in […] of PBS via tail vein injection and the mice were treated with L-4F or sc-4F at 10 mg/kg/d administered subcutaneously for 3 weeks, or treated with sc-4F or L-4F or G* peptide at 100 mg/kg/d administered in a chow diet for 3 weeks. After 3 weeks treatment, the mice were sacrificed; lungs were harvested, weighed, and fixed with Bouin solution (Sigma). Tumor nodules on the lung surface were counted.

The subject of assay [1] is HIF-1α. The assay is described as follows: Hypoxia response element (HRE) luciferase reporter assay in OV2008 cells. It is filed as cell-based, human. On the procedure: In brief, OV2008 cells were plated at 2×10^5 cells per well in a six-well plate and grown in complete media overnight. Then, pGL3-Epo-hypoxia response element (HRE)-Luc plasmid was transfected into cells by using Lipofectamine 2000 (Invitrogen). After 24 h, cells were starved overnight and subjected to L-4F treatment in the presence or absence of stimulators. A reporter assay system (Promega, Madison, Wis.) was used for the measurement of luciferase activity.

The test system of assay [2] is lysophosphatidic acid (LPA). The assay can be described thus: Plasma LPA levels in treated mice. Particulars: for plasma LPA levels: vs control mice. In kind it is in vivo, mouse. As to the method: LPA (20:4) was purchased from Avanti Polar Lipids. LPA levels were determined as described previously (Murph et al., 2007, Methods Enymol 433:1-25).
LPA (20:4) was purchased from Avanti Polar Lipids. LPA levels were determined as described previously (19).

For assay [3] the following is noted: reference (17); cited from earlier work.
The subject of assay [4] is VEGF, glucose transporter 1, and aldolase-A. The assay can be described thus: HIF-1α target gene mRNA, real-time RT-PCR in OV2008 cells. In kind it is cell-based, human. Particulars: 10 μg/ml pretreatment 1 h. As to the method:
Total RNA was extracted from cells by using a PureLink RNA Mini Kit (Invitrogen). The quantity and quality of RNA were assessed by using a SmartSpec 3000 Spectrophotometer (Bio-Rad Laboratories, Hercules, Calif.). cDNA was synthesized by using the High Capacity cDNA Reverse Transcription Kit (Applied Biosystems, Foster City, Calif.) according to the manufacturer's instructions. PCRs were performed by using the CFX96 realtime PCR system (Applied Biosystems). The cycling conditions were as follows: 3 min at 95° C. followed by 40 cycles of 95° C., 10 s; 60° C., 10 s; 72° C., 30 s followed by a final extension at 72° C. for 10 min. Each 25-μl reaction contained 0.4 μg of cDNA, 12.5 μl of SYBR Green qPCR SuperMix (Bio-Rad Laboratories), and 250 nM forward and reverse primers in nuclease-free water. […]
In general terms: In qPCR the cycle at which signal appears reflects the starting amount.

Assay [5] has as its system HIF-1α. The assay is described as follows: Immunofluorescence staining of nuclear HIF-1α in OV2008 cells. It is filed as cell-based, human. On the procedure:
Immunofluorescence staining was performed as described previously (Lee et al., 2006). In brief, OV2008 cells were plated onto a glass slip (Thermo Fisher Scientific) in 24-well plates at 4×10^4 cells per well and grown in complete medium overnight. After starvation overnight, cells were subjected to L-4F treatment in the presence or absence of stimulators. Then, cells were fixed in 4% neutral buffered formaldehyde for 25 min at room temperature, permeabilized with 0.5% Triton X-100 in PBS for 10 min, and blocked with 10% normal goat serum, 1% bovine serum albumin, and 0.3 M glycine prepared in PBS for 1 h. Cells were incubated with mouse anti-HIF-1α (1:200) overnight at 4° C. and incubated with Alexa Fluor 568 goat anti-mouse IgG (Invitrogen) for 1 h. Finally, cells were covered with VectaMount solution containing DAPI (Vector Laboratories, Burlingame, Calif.), and images were captured with a fluorescence microscope (Olympus IX70).

[6] abbreviates: 10 mg/kg/d subcutaneously for 3 weeks.
Where [7] appears, read: 100 mg/kg/d in chow diet for 3 weeks.
The mark [8] stands for this setting: OV2008 cells stimulated first with CoCl2 or insulin, 10 μg/ml.

For “Ac-DWFKAFYDKVAEKFKEAF-NH2 [L-4F, Ac-D-W-F-K-A-F-Y-D-K-V-A-E-K-F-K-E-A-F-NH2]”, in the assay with CT26 cells (setting [6]), the lung weights was determined as 225 mg and the “tumor numbers counted on the lung surface” value came to 18. For the same substance, in the assay with CT26 cells (setting [7]), the lung weights is 238 mg and the “tumor numbers on the lung surface” value was determined as 12. Besides, the “transcription of downstream HIF-1α target genes (HRE reporter), post-treatment” value in the assay on HIF-1α [1] (setting [8]) is “inhibition of the transcription”. For the same substance, in the assay with HIF-1α [1] (OV2008 cells, 10 μg/ml pretreatment 1 h), the “CoCl2- and insulin-mediated induction of HRE luciferase activity” value is “significantly inhibited”. Further, in assay [2] (BALB/c lung tumor mice, 100 mg/kg/d in chow for 3 weeks), the “plasma LPA levels” value is “significantly reduced”. For the same substance, the “plasma LPA levels” value in assay [2] (C57BL/6J-APC^min/+ mice, 100 mg/kg/d in mouse chow for 8 weeks) is “significantly reduced”. Also, the “decrease of plasma LPA levels compared with control mice” value in assay [2] (C57BL/6J-APC^min/+ mice, chow, 8 weeks) is recorded as over 50%. Moreover, the “binding of LPA” value in assay [3] is given as “binds”. Also, the “CoCl2- and insulin-induced increase in mRNA levels of HIF-1α target genes” value in assay [4] was “abrogated”. The “nuclear expression of HIF-1α, post-treatment” value with HIF-1α [5] (setting [8]) is “decreased nuclear expression”. In the assay on HIF-1α [5] (OV2008 cells, pretreatment), the “CoCl2- and insulin-induced accumulation of HIF-1α in nuclei” value was “dramatically reversed”.
